From patent US4459417A, “Process for preparing spectinomycin analogs: N-demethylation of spectinomycin or its analogs and realkylation of the intermediates” (The Upjohn Company, priority 1983, dated 1984)
Values after ≈ are worked out from the molar mass of the structure shown. Counter-ions that a name gives are not always drawn.

What was measured:
Assay in all cases: Minimum inhibitory concentration in vitro
Type in all cases: cell-based
[1] = system: S. marcescens UC 131; conditions: for MIC: Serratia marcescens, UC131
[2] = system: S. faecalis UC 694; conditions: for MIC: Enterococcus faecalis, UC694
[3] = system: P. stuartii UC 6570; conditions: for MIC: Providencia stuartii, UC6570
[4] = system: Ps. aeruginosa UC 95; conditions: for MIC: Pseudomonas aeruginosa, UC95
[5] = system: S. typhi UC 215; conditions: for MIC: Salmonella enterica, read-out: Minimum Inhibitory Concentration; for Minimum Inhibitory Concentration: in vitro, S. typhi UC 215
[6] = system: K. pneumoniae UC 58; conditions: for MIC: Klebsiella pneumoniae, UC58
[7] = system: E. coli UC 45; conditions: for MIC: Escherichia coli, UC45
[8] = system: S. flexneri UC 143; conditions: Shigella flexneri, UC143
[9] = system: P. mirabilis UC 6671; conditions: for MIC: Proteus mirabilis, UC6671
[10] = system: S. schottmuelleri UC 126
[11] = system: P. vulgaris UC 93; conditions: for MIC: Proteus vulgaris, UC93
[12] = system: S. aureus UC 76; conditions: for MIC: Staphylococcus aureus, UC76

Molecule	MIC [1]	MIC [2]	MIC [3]	MIC [4]	MIC [5]	MIC [6]	MIC [7]	MIC [8]	MIC [9]	MIC [10]	MIC [11]	MIC [12]	Minimum Inhibitory Concentration [1]	Minimum Inhibitory Concentration [2]	Minimum Inhibitory Concentration [5]	Minimum Inhibitory Concentration [6]	Minimum Inhibitory Concentration [9]	Minimum Inhibitory Concentration [11]	Minimum Inhibitory Concentration [12]	other results
CCN[C@@H]1[C@H](O)[C@H](NCC)[C@H]2O[C@@]3(O)C(=O)C[C@@H](C)O[C@H]3O[C@@H]2[C@H]1O [IIIa, N,N'-didemethyl-N,N'-diethylspectinomycin dihydrochloride]	62.5 µg/mL	> 1000 µg/mL	> 1000 µg/mL	1000 µg/mL	1000 µg/mL	31.2 µg/mL	1000 µg/mL	31.2 µg/mL	62.5 µg/mL	> 1000 µg/mL	125 µg/mL	500 µg/mL								
mono-N-demethyl-mono-N-ethylspectinomycin dihydrochloride [IIIb]													7.8 Micrograms/Milliliter	500 Micrograms/Milliliter	125 Micrograms/Milliliter	3.9 Micrograms/Milliliter	15.6 Micrograms/Milliliter	7.8 Micrograms/Milliliter	31.2 Micrograms/Milliliter	Minimum Inhibitory Concentration [3]: > 500 Micrograms/Milliliter; Minimum Inhibitory Concentration [4]: 31.2 Micrograms/Milliliter; Minimum Inhibitory Concentration [7]: 62.5 Micrograms/Milliliter
CN[C@@H]1[C@H](O)[C@H](NC)[C@H]2O[C@@]3(O)C(=O)C[C@@H](C)O[C@H]3O[C@@H]2[C@H]1O [Ia, spectinomycin]	3.9 to 7.8 µg/mL (≈ 11.7 to 23.5 µM)	31.2 to 62.5 µg/mL (≈ 93.9 to 188 µM)	1000 µg/mL (≈ 3010 µM)	31.2 µg/mL (≈ 93.9 µM)	3.9 to 7.8 µg/mL (≈ 11.7 to 23.5 µM)	2 to 3.9 µg/mL (≈ 6.02 to 11.7 µM)	3.9 to 7.8 µg/mL (≈ 11.7 to 23.5 µM)	3.9 to 7.8 µg/mL (≈ 11.7 to 23.5 µM)	3.9 to 7.8 µg/mL (≈ 11.7 to 23.5 µM)	7.8 µg/mL (≈ 23.5 µM)	7.8 to 15.6 µg/mL (≈ 23.5 to 46.9 µM)	7.8 µg/mL (≈ 23.5 µM)								
Mono-N-demethylspectinomycin dihydrochlorides [IIb]													3.9 Micrograms/Milliliter	125 Micrograms/Milliliter	62.5 Micrograms/Milliliter	15.6 Micrograms/Milliliter	15.6 Micrograms/Milliliter	15.6 Micrograms/Milliliter	15.6 Micrograms/Milliliter	
C[C@@H]1CC(=O)[C@]2(O)O[C@@H]3[C@@H](N)[C@@H](O)[C@@H](N)[C@H](O)[C@H]3O[C@@H]2O1 [IIa, N,N'-didemethylspectinomycin dihydrochloride]	31.2 µg/mL	> 1000 µg/mL		250 µg/mL	> 1000 µg/mL	125 µg/mL	> 1000 µg/mL	250 µg/mL	1000 µg/mL		125 µg/mL	250 µg/mL								
